# ChEMBL document CHEMBL4376868, “Structure-Activity Relationship Study of Novel 6-Aryl-2-benzoyl-pyridines as Tubulin Polymerization Inhibitors with Potent Antiproliferative Properties” (J Med Chem, 2020)
# Test system: MDA-MB-231
# Assay: Antiproliferative activity against human MDA-MB-231 cells measured after 72 hrs by MTS assay
# Assay type: functional, cell-based
# Conditions: MDA-MB-231, 72 h
row,Structure (SMILES),IC50 [nM]
1,COc1cc(C(=O)c2cccc(-c3ccc(O)cc3)n2)cc(OC)c1OC,27.7
2,COc1cc(C(=O)c2cccc(-c3ccc(N)cc3)n2)cc(OC)c1OC,27.1
3,COc1ccc(-c2cccc(C(=O)c3cc(OC)c(OC)c(OC)c3)n2)cc1,50.7
4,COc1cc(C(=O)c2cccc(-c3ccnc4ccccc34)n2)cc(OC)c1OC,> 1000
5,COc1cc(C(=O)c2cccc(-c3cccc(O)c3)n2)cc(OC)c1OC,41.4
6,COc1cc(C(=O)c2cccc(-c3cncc4ccccc34)n2)cc(OC)c1OC,> 1000
7,COc1cc(C(=O)c2cccc(-c3ccc(F)cc3)n2)cc(OC)c1OC,20.7
8,COc1cc(C(=O)c2cccc(-c3cccnc3)n2)cc(OC)c1OC,66.5
9,COc1cccc(-c2cccc(C(=O)c3cc(OC)c(OC)c(OC)c3)n2)c1,41.4
10,COc1cc(C(=O)c2cccc(-c3ccc4[nH]c5ccccc5c4c3)n2)cc(OC)c1OC,424
11,COc1cc(C(=O)c2cccc(-c3cccc([N+](=O)[O-])c3)n2)cc(OC)c1OC,328

# Test system: MDA-MB-453
# Assay: Antiproliferative activity against human MDA-MB-453 cells measured after 72 hrs by MTS assay
# Assay type: functional, cell-based
# Conditions: MDA-MB-453, 72 h
row,Structure (SMILES),IC50 [nM]
1,COc1cc(C(=O)c2cccc(-c3ccc(O)cc3)n2)cc(OC)c1OC,28.5
2,COc1cc(C(=O)c2cccc(-c3ccc(N)cc3)n2)cc(OC)c1OC,13.4
3,COc1ccc(-c2cccc(C(=O)c3cc(OC)c(OC)c(OC)c3)n2)cc1,18.1
4,COc1cc(C(=O)c2cccc(-c3ccnc4ccccc34)n2)cc(OC)c1OC,> 1000
5,COc1cc(C(=O)c2cccc(-c3cccc(O)c3)n2)cc(OC)c1OC,29.1
6,COc1cc(C(=O)c2cccc(-c3cncc4ccccc34)n2)cc(OC)c1OC,> 1000
7,COc1cc(C(=O)c2cccc(-c3ccc(F)cc3)n2)cc(OC)c1OC,21.4
8,COc1cc(C(=O)c2cccc(-c3cccnc3)n2)cc(OC)c1OC,102
9,COc1cccc(-c2cccc(C(=O)c3cc(OC)c(OC)c(OC)c3)n2)c1,24.5
10,COc1cc(C(=O)c2cccc(-c3ccc4[nH]c5ccccc5c4c3)n2)cc(OC)c1OC,301
11,COc1cc(C(=O)c2cccc(-c3cccc([N+](=O)[O-])c3)n2)cc(OC)c1OC,881

# Test system: SK-BR-3
# Assay: Antiproliferative activity against human SK-BR-3 cells measured after 72 hrs by MTS assay
# Assay type: functional, cell-based
# Conditions: SK-BR-3, 72 h
row,Structure (SMILES),IC50 [nM]
1,COc1cc(C(=O)c2cccc(-c3ccc(O)cc3)n2)cc(OC)c1OC,386
2,COc1cc(C(=O)c2cccc(-c3ccc(N)cc3)n2)cc(OC)c1OC,16.2
3,COc1ccc(-c2cccc(C(=O)c3cc(OC)c(OC)c(OC)c3)n2)cc1,19.9
4,COc1cc(C(=O)c2cccc(-c3ccnc4ccccc34)n2)cc(OC)c1OC,> 1000
5,COc1cc(C(=O)c2cccc(-c3cccc(O)c3)n2)cc(OC)c1OC,101
6,COc1cc(C(=O)c2cccc(-c3cncc4ccccc34)n2)cc(OC)c1OC,> 1000
7,COc1cc(C(=O)c2cccc(-c3ccc(F)cc3)n2)cc(OC)c1OC,36.6
8,COc1cc(C(=O)c2cccc(-c3cccnc3)n2)cc(OC)c1OC,109
9,COc1cccc(-c2cccc(C(=O)c3cc(OC)c(OC)c(OC)c3)n2)c1,42.4
10,COc1cc(C(=O)c2cccc(-c3ccc4[nH]c5ccccc5c4c3)n2)cc(OC)c1OC,321
11,COc1cc(C(=O)c2cccc(-c3cccc([N+](=O)[O-])c3)n2)cc(OC)c1OC,736

# Test system: A-375
# Assay: Antiproliferative activity against human A375 cells measured after 72 hrs by MTS assay
# Assay type: functional, cell-based
# Conditions: A-375, 72 h
row,Structure (SMILES),IC50 [nM]
1,COc1cc(C(=O)c2cccc(-c3ccc(O)cc3)n2)cc(OC)c1OC,42.4
2,COc1cc(C(=O)c2cccc(-c3ccc(N)cc3)n2)cc(OC)c1OC,13.2
3,COc1ccc(-c2cccc(C(=O)c3cc(OC)c(OC)c(OC)c3)n2)cc1,27.8
4,COc1cc(C(=O)c2cccc(-c3ccnc4ccccc34)n2)cc(OC)c1OC,> 1000
5,COc1cc(C(=O)c2cccc(-c3cccc(O)c3)n2)cc(OC)c1OC,35.8
6,COc1cc(C(=O)c2cccc(-c3cncc4ccccc34)n2)cc(OC)c1OC,> 1000
7,COc1cc(C(=O)c2cccc(-c3ccc(F)cc3)n2)cc(OC)c1OC,25
8,COc1cc(C(=O)c2cccc(-c3cccnc3)n2)cc(OC)c1OC,60.1
9,COc1cccc(-c2cccc(C(=O)c3cc(OC)c(OC)c(OC)c3)n2)c1,41.3
10,COc1cc(C(=O)c2cccc(-c3ccc4[nH]c5ccccc5c4c3)n2)cc(OC)c1OC,277
11,COc1cc(C(=O)c2cccc(-c3cccc([N+](=O)[O-])c3)n2)cc(OC)c1OC,311

# Test system: M14
# Assay: Antiproliferative activity against human M14 cells measured after 72 hrs by MTS assay
# Assay type: functional, cell-based
# Conditions: M14, 72 h
row,Structure (SMILES),IC50 [nM]
1,COc1cc(C(=O)c2cccc(-c3ccc(O)cc3)n2)cc(OC)c1OC,28.9
2,COc1cc(C(=O)c2cccc(-c3ccc(N)cc3)n2)cc(OC)c1OC,12.1
3,COc1ccc(-c2cccc(C(=O)c3cc(OC)c(OC)c(OC)c3)n2)cc1,27.4
4,COc1cc(C(=O)c2cccc(-c3ccnc4ccccc34)n2)cc(OC)c1OC,> 1000
5,COc1cc(C(=O)c2cccc(-c3cccc(O)c3)n2)cc(OC)c1OC,31.4
6,COc1cc(C(=O)c2cccc(-c3cncc4ccccc34)n2)cc(OC)c1OC,> 1000
7,COc1cc(C(=O)c2cccc(-c3ccc(F)cc3)n2)cc(OC)c1OC,15.4
8,COc1cc(C(=O)c2cccc(-c3cccnc3)n2)cc(OC)c1OC,55.3
9,COc1cccc(-c2cccc(C(=O)c3cc(OC)c(OC)c(OC)c3)n2)c1,34.7
10,COc1cc(C(=O)c2cccc(-c3ccc4[nH]c5ccccc5c4c3)n2)cc(OC)c1OC,293
11,COc1cc(C(=O)c2cccc(-c3cccc([N+](=O)[O-])c3)n2)cc(OC)c1OC,87.9

# Test system: RPMI-7951
# Assay: Antiproliferative activity against human RPMI7951 cells measured after 72 hrs by MTS assay
# Assay type: functional, cell-based
# Conditions: RPMI-7951, 72 h
row,Structure (SMILES),IC50 [nM]
1,COc1cc(C(=O)c2cccc(-c3ccc(O)cc3)n2)cc(OC)c1OC,22.2
2,COc1cc(C(=O)c2cccc(-c3ccc(N)cc3)n2)cc(OC)c1OC,9.4
3,COc1ccc(-c2cccc(C(=O)c3cc(OC)c(OC)c(OC)c3)n2)cc1,32.1
4,COc1cc(C(=O)c2cccc(-c3ccnc4ccccc34)n2)cc(OC)c1OC,> 1000
5,COc1cc(C(=O)c2cccc(-c3cccc(O)c3)n2)cc(OC)c1OC,29.9
6,COc1cc(C(=O)c2cccc(-c3cncc4ccccc34)n2)cc(OC)c1OC,> 1000
7,COc1cc(C(=O)c2cccc(-c3ccc(F)cc3)n2)cc(OC)c1OC,23.2
8,COc1cc(C(=O)c2cccc(-c3cccnc3)n2)cc(OC)c1OC,51.9
9,COc1cccc(-c2cccc(C(=O)c3cc(OC)c(OC)c(OC)c3)n2)c1,42.3
10,COc1cc(C(=O)c2cccc(-c3ccc4[nH]c5ccccc5c4c3)n2)cc(OC)c1OC,202
11,COc1cc(C(=O)c2cccc(-c3cccc([N+](=O)[O-])c3)n2)cc(OC)c1OC,54.7
